Marks after values point to notes of the source that are not given here.
Columns and labels:
U937 cells [1] = assay: cell apoptosis assay, DNR; assay type: cell-based; conditions: PDCD5 5 μg/mL where combined, 24 hours
Experimental: Methods: Cell apoptosis assay: U937 cells (ATCC), in the logarithmic phase, were maintained in RPMI 1640 (Life Technologies, USA) supplemented with 10% FBS (Hyclone, USA), and were adjusted to a density of 2×10^5 cells/mL and then were divided into control groups and test groups. U937 cells in the control groups were treated with DNR (Pharmacia Italia SPA) alone, with the final concentrations of 0 μg/mL, 0.05 μg/mL, and 0.1 μg/mL. U937 cells in the test groups were treated with DNR of various concentrations combined with PDCD5 of various concentrations, with the final concentrations of PDCD5 being 0 μg/mL, 2.5 μg/mL, and 5 μg/mL, respectively. After being incubated for 24 hours in a 37° C., 5% CO2 and saturatedly humidified incubator, the cells were stained with Annexin-V/PI (Biosea) and then were analyzed for apoptosis with a FACSCalibur flow cytometer.

U937 cells [2] = assay: colony forming ability (CFA), DNR; assay type: cell-based; conditions: DNR 0.5 ng/mL alone; 14 days
Experimental: (§1) Analysis for colony forming ability (CFA): U937 cells (ATCC), in the logarithmic phase, were maintained in RPMI 1640 medium supplemented with 20% FBS and 0.4% methyl cellulose (Sigma) by the semi-solid colony culture method and were adjusted to a density of 5×10^3 cells/mL. The cells were divided into control groups and test groups, and each group was assayed in triple wells. U937 cells in the control groups were treated with DNR alone, with the final concentrations of 0 ng/mL and 0.5 ng/mL. U937 cells in the test group were treated with DNR of various concentrations combined with PDCD5 of various concentrations, while the final concentrations of PDCD5 were 0 μg/mL, 0.625 μg/mL, 1.25 μg/mL, and 2.5 μg/mL, respectively. After incubation for 14 days in a 37° C., 5% CO2 and saturatedly humidified incubator, a colony with more than 30 cells was counted by an inverted microscope in order to analyze colony forming ability of each group. The colony forming ability was shown as the ratio of average number of colony in each group versus that of the untreated control group in which the final concentrations of DNR and PDCD5 were 0 μg/mL.

Raji cells [3] = assay: FITC/Annexin-V apoptosis by flow cytometry, DNR; assay type: cell-based; conditions: DNR 0.05 μg/mL; PDCD5 5 μg/mL where combined; 24 h
Experimental: Methods: Raji cells were cultured in RPMI 1640 medium (Life Technologies, USA) supplemented with 10% Fetal Bovine Serum (FBS, Hyclone, USA). The cells were seeded in 24-well plates with 2×10^5 cells per well. rhPDCD5 was added to each well and the final concentrations were 0 μg/mL, 2.5 μg/mL and 5 μg/mL, respectively. Subsequently, DNR was added and the final concentrations were 0 μg/mL and 0.05 μg/mL, and RPMI 1640 medium supplemented with 10% FBS was added to ensure the system was brought to 1 mL. After 24 h incubation, the cells were stained with FITC/Annexin-V (Beijing Biosea Biotechnology Co., Ltd.) and the apoptosis was detected by flow cytometry.

Jurkat cells = assay: FITC/Annexin-V apoptosis by flow cytometry, DNR; assay type: cell-based; conditions: DNR 0.05 μg/mL; PDCD5 5 μg/mL where combined; 24 h
Experimental: Methods: The density of Jurkat cells were adjusted by RPMI 1640 medium (Life Technologies, USA) supplemented with 10% Fetal Bovine Serum (FBS, Hyclone, USA). […] Subsequently, DNR (Pharmacia Italia S.P.A) was added with its final concentration of 0.05 μg/mL, and RPMI 1640 medium supplemented with 10% FBS was added to ensure the system to be 1 mL. After 24h incubation, the sample was stained with FITC/Annexin-V (Beijing Biosea Biotechnology CO., LTD) and detected for apoptosis by flow cytometry.

U937 xenografts = assay: U937 nude mice xenograft model, DNR; assay type: in vivo, BALB/c nude mice
Experimental: Methods: U937 nude mice xenograft model: BALB/c nude mice (5-6 weeks of age) were pretreated with cyclophosphamide (100 mg/kg, injected intraperitoneally once a day for two consecutive days). On day 3, 1×10^7 (100 μl) of U937 cells were subcutaneously (s.c.) injected into a single flank of each of the mice. The treatments began on day 7 after inoculation when the average tumor diameter reached about 5 mm. The mice were divided randomly into four groups (n=6, i.e., six mice in each group) and treated with normal saline (NS), rhPDCD5 (40 μg, locally injected into the tumor), DNR (40 μg, intraperitoneal) or DNR (40 μg) plus rhPDCD5 (40 μg), once a day for 8 consecutive days.
Tumor volume (V) was determined every other day by vernier caliper measurements and calculated based on the equation of V=ab^2/2, where “a” refers to a long tumor diameter and “b” refers to a short diameter, then tumor volume growth curve was drawn. The percentage of reductions in tumor growth was calculated using the formula: [1-(Tf-Ti)/(Cf-Ci)]×100, where Tf and Ti are the final and initial mean tumor volumes, respectively, of the group receiving a specific treatment, and Cf and Ci are the final and initial mean tumor volumes, respectively, of the NS control group. After the treatment, tumors were collected and weighed and tissues were sectioned and processed by histological hematoxylin and eosin (H&E) staining. Results were statistically analyzed using SPSS 13.0. The measurements were expressed as the mean±standard deviation. Data were analyzed by the single-factor ANOVA and Student's t test and are presented as mean±standard deviation (SD). P<0.05 was considered statistically significant.

Raji cells [4] = assay: colony-forming ability (CFA) assay, ADM; assay type: cell-based; conditions: ADM 5 ng/mL alone; 14 days
Experimental: as §1, with “The colony forming ability was shown as the ratio of average number of colony in each group versus that of the untreated control group in which the final concentrations of DNR and PDCD5 were 0 μg/mL.” left out
Methods: Colony-forming ability (CFA) assay: Raji cells of logarithmic growth phase were cultured, and the method was the same as that in Example 8. […] The numbers of colonies (containing≧30 cells) were counted by inverted microscope to observe the CFA, which is indicated by the ratio of average number of colony formation in each of the test groups versus that of the untreated control group.

HL-60 cells = assay: cell apoptosis assay, As2O3; assay type: cell-based; conditions: for rate of apoptosis: PDCD5 20 μg/mL where combined, 24 h
Experimental: Methods: Cell apoptosis assay: HL-60 cells (ATCC) of logarithmic growth phase were cultured and the density of cells was 2×10^5/mL. The cells were divided into control and test groups. In the control groups, the HL60 cells were treated only with As2O3 (Harbin Yida Pharmaceutical Co., Ltd.), and the final concentration of As2O3 were 0 μg/mL, 0.25 μg/mL and 0.5 μg/mL, respectively. In the test groups, the HL60 cells were treated with As2O3 in the various concentrations combined with PDCD5 in various concentrations, the final concentrations of PDCD5 being 0 μg/mL, 5 μg/mL, 10 μg/mL and 20 μg/mL, respectively. The cells were incubated in a 37° C., 5% CO2 and saturatedly humidified incubator for 24 h, and subsequently were stained with Annexin-V/PI and detected for apoptosis by flow cytometer.

HL60 cells = assay: colony-forming ability (CFA) assay, As2O3; assay type: cell-based; conditions: As2O3 0.25 μg/mL alone; 14 days
Experimental: as §1
Colony-forming ability (CFA) assay: HL60 cells of logarithmic growth phase were cultured by a method identical to that in Example 8. The cells were divided into control and test groups (each with 3 wells): In the control groups, the HL60 cells were treated only with arsenic trioxide and the final concentration of which were 0 μg/mL and 0.25 μg/mL, respectively; in the test groups, the HL60 cells were treated with different concentrations of As2O3, which was combined with different concentrations of PDCD5, the final concentrations of PDCD5 were 0 μg/mL, 5 μg/mL, 10 μg/mL and 20 μg/mL, respectively. Cultures were incubated in a 37° C., 5% CO2 and saturatedly humidified incubator for 14 days. The numbers of colonies (containing≧30 cells) were counted on day 14 by inverted microscope. The colony-forming ability was observed as the ratio of the number of average colony formation in the test groups versus that in the untreated control group. […]

K562 cells = assay: Annexin-V apoptosis by flow cytometry, Ara-C; assay type: cell-based; conditions: Ara-C 0.1 μg/mL; PDCD5 60 μg/mL where combined; 48 hours
Experimental: Methods: Cell staining with FITC/Annexin-V and cell apoptosis detection in vitro by flow cytometry: K562 cells (ATCC) were maintained in RPMI 1640 (Life Technologies, USA) supplemented with 10% FBS (Hyclone, USA), and were plated in 24-well culture dishes to a density of 2×10^5 cells per well. rhPDCD5 protein was added in each well with a final concentration of 15 μg/mL, 30 μg/mL and 60 μg/mL, respectively. Chemotherapeutic drug Ara-C (Pharmacia, Italia) was then added with a final concentration of 0.1 μg/mL and RPMI 1640 medium supplemented with 10% FBS was added to bring the culture system to 1 mL. After incubation for 48 hours, the cells were stained with Annexin-V/PI (Biosea) and then were analyzed for apoptosis by flow cytometry.

mouse livers = assay: HE staining of liver paraffin sections of treated K562 xenograft mice; assay type: in vivo, BALB/c nu/nu mice; conditions: no PDCD5; Imatinib 1.2 mg oral or IDR 25 μg i.p.; n=6
Experimental: (§2) Methods: BALB/c nu/nu female mice (6-8 weeks of age) were injected intraperitoneally with cyclophosphamide (CTX) (Jiangsu Hengrui Medicine Co., Ltd.), 2 mg/day per mouse for two days. One day after the second cyclophosphamide injection, 1.5×10^7 of K562 cells were injected subcutaneously into the single armpit of each of the mice. The mice bearing K562 cell xenografts were divided randomly into nine groups (n=6, i.e., six mice in each group) and each of the mice was i.p. treated, respectively, with normal saline, PDCD5, IDR (Sigma Corporation), and IDR plus PDCD5. […] At the end of the experiment, mice were killed. The mice were the same batch of that of Example 6. The excised liver of mice after treatment were fixed in 10% neutrally buffered formalin and then embedded in paraffin after dehydration. The paraffin embedding was cut and paraffin sections after HE staining were used to observe the necrosis of experimental mouse livers. Meanwhile, paraffin sections after Tunel (Roche Inc.) staining were used to observe the apoptosis of experimental mouse livers, and then the number of apoptotic cells was counted in five high-power microscope field for statistical analysis.

mice hearts = assay: HE staining of heart paraffin sections of treated K562 xenograft mice; assay type: in vivo, BALB/c nu/nu mice; conditions: no PDCD5; Imatinib 1.2 mg oral or IDR 25 μg i.p.; n=6
Experimental: as §2, with “hearts” for “liver”, “myocardial congestion, hemorrhage, and myofiber degeneration” for “necrosis”, “heart” for “experimental mouse livers. Meanwhile, paraffin sections after Tunel (Roche Inc.) staining were used to observe the apoptosis of experimental mouse livers, and then the number of apoptotic cells was counted”, “mice.” for “five high-power microscope field for statistical analysis.”

Molecule: COc1cccc2c1C(=O)c1c(O)c3c(c(O)c1C2=O)C[C@@](O)(C(C)=O)C[C@@H]3O[C@H]1C[C@H](N)[C@H](O)[C@H](C)O1 [DNR, Daunorubicin]
- rate of apoptosis (U937 cells [1]; high-dose DNR 0.1 μg/mL): 23.01%
- rate of apoptosis (U937 cells [1]; low-dose DNR 0.05 μg/mL): 21.23%
- CFA (ratio to untreated control) (U937 cells [2]): 79%
- rate of apoptosis (Raji cells [3]): 17.46%
- rate of apoptosis (Jurkat cells): 27.01%
- average tumor weight (U937 xenografts; after the treatment, DNR 40 μg, PDCD5 40 μg where combined): 0.45 ± 0.15 g
- inhibition of tumor growth (percentage of inhibition on tumor sizes vs control group) (U937 xenografts; day 15, DNR 40 μg, rhPDCD5 40 μg where combined): 31.97%
- Average size of tumors (mean ± SD) (U937 xenografts; fifteenth day, rhPDCD5 40 μg into the tumor, DNR 40 μg intraperitoneal, once a day for 8 days): 410.27 ± 154.93* mm^3

Molecule: COc1cccc2c1C(=O)c1c(O)c3c(c(O)c1C2=O)C[C@@](O)(C(=O)CO)C[C@@H]3O[C@H]1C[C@H](N)[C@H](O)[C@H](C)O1 [ADM, adriamycin]
- CFA (ratio to untreated control) (Raji cells [4]): 32%

Molecule: arsenious acid [As2O3]
- enhancement of induced apoptosis (HL-60 cells): can enhance PDCD5-induced apoptosis
- rate of apoptosis (HL-60 cells; high-dose As2O3 0.5 μg/mL): 78.02%
- rate of apoptosis (HL-60 cells; low-dose As2O3 0.25 μg/mL): 21.23%
- CFA (ratio to untreated control) (HL60 cells): 52%

Molecule: Nc1ccn([C@@H]2O[C@H](CO)[C@@H](O)[C@@H]2O)c(=O)n1 [Ara-C, arabinoside]
- apoptosis rate (K562 cells): 34.87%

Molecule: Cc1ccc(NC(=O)c2ccc(CN3CCN(C)CC3)cc2)cc1Nc1nccc(-c2cccnc2)n1 [Imatinib]
- Sinusoidal expansion, congestive hemorrhage and necrosis of liver cells surrounding sinusoid: mice graded + (mouse livers): 2 number of mice
- Sinusoidal expansion, congestive hemorrhage and necrosis of liver cells surrounding sinusoid: mice graded ++ (mouse livers): 0 number of mice
- Sinusoidal expansion, congestive hemorrhage and necrosis of liver cells surrounding sinusoid: mice graded +/− (mouse livers): 0 number of mice
- Sinusoidal expansion, congestive hemorrhage and necrosis of liver cells surrounding sinusoid: mice graded − (mouse livers): 4 number of mice
- Myocardial hemorrhage and congestion: mice graded + (mice hearts): 1 number of mice
- Myocardial hemorrhage and congestion: mice graded ++ (mice hearts): 1 number of mice
- Myocardial hemorrhage and congestion: mice graded − (mice hearts): 4 number of mice
- Myofiber degeneration: mice graded + (mice hearts): 0 number of mice
- Myofiber degeneration: mice graded − (mice hearts): 6 number of mice

Reference: patent US20110009342A1, “USES OF PDCD5 POLYPEPTIDE FOR TUMOR CHEMOTHERAPY AND ORGAN PROTECTION” (priority 2008, published 2011)
